Assay [1] has as its system MV4-11 (FLT3 ITD+/+ mutant type). The assay is described as follows: In vitro growth inhibition (GI50), MV4-11. To be noted: Homo sapiens, MV4-11; Cell lines of leukemia; read-out: GI 50 MV4-11 FLT3 (ITD +/+). The assay is classed as cell-based, human.
In assay [2] the test system is MOLM-13 (FLT3 ITD+/− mutant type). The assay is described as follows: In vitro growth inhibition (GI50), MOLM-13. As to conditions: Homo sapiens, MOLM-13; Cell lines of leukemia; read-out: GI 50 MOLM-13 FLT3 (ITD+/−). It is filed as cell-based, human.
For the next assay, the system named is RS4; 11 (FLT3 wild type). The assay is described as follows: In vitro growth inhibition (GI50), RS4; 11. It is filed as cell-based, human. To be noted: Homo sapiens, RS4-11; Cell lines of leukemia; read-out: GI 50 RS4: 11 FLT3 (WT).
Assay [3] has as its system K562 (FLT3 negative expression, positive expression of BCR-ABL fusion protein). The assay is described as follows: In vitro growth inhibition (GI50), K562. The assay is classed as cell-based. As to conditions: Homo sapiens, Cell lines of leukemia, read-out: GI 50 K562 BCR-ABL.
Assay [4] deals with RAMOS (positive expression of Brutons tyrosine protein kinase). The assay is described as follows: In vitro growth inhibition (GI50), RAMOS. The assay is classed as cell-based. To be noted: Homo sapiens, Cell lines of leukemia, read-out: GI 50 Ramos BTK.
The subject of another assay is U937 (FLT3 wild-type). The assay is described as follows: In vitro growth inhibition (GI50), U937. It is filed as cell-based. To be noted: Homo sapiens, U-937; Cell lines of leukemia; read-out: GI 50 U937 FLT 3(WT).
Assay [5] relates to Kasumi-1 (c-Kit N822K mutant type). The assay is described as follows: In vitro growth inhibition (GI50), Kasumi-1. To be noted: Homo sapiens, Cell lines of leukemia, read-out: GI 50 Kasumi-1 Kit (N822K). The assay is classed as cell-based. In outline:
(§1)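 After 3–5 days of treatment (top concentration 5,000 nM, serially diluted 2- or 10-fold to 0.01 nM, solvent ≤1%), viability was read by CCK8 at OD450. Growth rate was normalised to the time-zero and solvent-control wells, and GI50 was derived from the curve. Cultures in RPMI1640 + 10% FBS.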

The subject of assay [6] is KG-1 (expressing FGFR1OP2-FGFR1 fusion protein). The assay can be described thus: In vitro growth inhibition (GI50), KG-1. To be noted: Homo sapiens; Cell lines of leukemia; read-out: GI 50 KG-1 FGFR1OP 2-FGFR1. The assay is classed as cell-based.
The subject of the next assay is HL-60 (FLT3 wild type). The assay can be described thus: In vitro growth inhibition (GI50), HL-60. It is filed as cell-based. To be noted: Homo sapiens, Cell lines of leukemia, read-out: GI 50 HL60 FLT3 (WT). In outline: as §1
Assay [7] has as its system OCI-AML3 (NPMc+ mutant type). The assay is described as follows: In vitro growth inhibition (GI50), OCI-AML3. To be noted: Homo sapiens, OCI-AML-3; Cell lines of leukemia; read-out: GI 50 OCI- AML3 NPMc+. The assay is classed as cell-based.

SMILES strings stand for the structures.

With `Nc1cc(C(F)(F)F)nn1C(=O)Nc1ccc(-n2cnc3ccccc32)cc1` [Compound 115, 5-amino-3-trifluoromethylpyrazol-1-carboxylic acid (4-benzimidazol-1-yl-phenyl)-amide], the GI50 was 0.1 to 1 µM in [1]; 0.1 to 1 µM in [2]; more than 1 µM in the assay on RS4; 11 (FLT3 wild type); more than 1 µM in [3]; more than 1 µM in assay [4]; more than 1 µM in the assay with U937 (FLT3 wild-type). For the same compound, the GI50 in assay [5] was more than 1 µM; in assay [6], more than 1 µM; in the assay on HL-60 (FLT3 wild type), more than 1 µM; in assay [7] it was 0.1 to 1 µM.
Regarding `CC(C)(C)c1cc(NC(=O)Nc2ccc(-n3cnc4ccccc43)cc2)n(CCO)n1` [Compound 103, 1-(4-benzimidazol-1-yl-phenyl)-3-[5-tert-butyl-2-(2-hydroxy-ethyl)-2H-pyrazol-3-yl]-urea], the GI50 is 0.001 to 0.01 µM in assay [1]; 0.001 to 0.01 µM in assay [2]; more than 1 µM with RS4; 11 (FLT3 wild type); more than 1 µM in assay [3]; more than 1 µM in [4]; more than 1 µM with U937 (FLT3 wild-type). The GI50 (in assay [5]; in assay [6]; in the assay with HL-60 (FLT3 wild type); in assay [7]) was more than 1 µM in each case.
For `CC(C)(C)c1cc(NC(=O)Nc2ccc(-n3ccc4cccnc43)cc2)no1` [Compound 49, 1-(5-tert-butyl-isoxazol-3-yl)-3-(4-pyrrolo[2,3-b]pyridin-1-yl-phenyl)-urea], the GI50 in assay [1] was 0.1 to 1 µM; in assay [2] it was 0.1 to 1 µM; in the assay with RS4; 11 (FLT3 wild type), more than 1 µM; in [3], more than 1 µM; in [4], more than 1 µM; in the assay on U937 (FLT3 wild-type), more than 1 µM. The GI50 (in assay [5]; in assay [6]; with HL-60 (FLT3 wild type); in [7]) was more than 1 µM throughout.
Regarding `O=C(Nc1ccc(-n2cnc3ccccc32)cc1)Nc1cc(C(F)(F)F)n[nH]1` [Compound 67, 1-(4-benzimidazol-1-yl-phenyl)-3-(5-trifluoromethyl-2H-pyrazole-3-yl)-urea], the GI50 was 0.0001 to 0.001 µM in [1]; 0.0001 to 0.001 µM in assay [2]; 0.1 to 1 µM in the assay on RS4; 11 (FLT3 wild type); 0.1 to 1 µM in [3]; 0.1 to 1 µM in [4]; 0.1 to 1 µM in the assay with U937 (FLT3 wild-type). Further, the GI50 in assay [5] is 0.1 to 1 µM; in assay [6], 0.1 to 1 µM; with HL-60 (FLT3 wild type) it was 0.1 to 1 µM; in [7] it was more than 1 µM.
On to `O=C(Nc1ccc(-n2cnc3ccccc32)cc1)Nc1cc(-c2ccccc2)[nH]n1` [Compound 65, 1-(4-benzimidazol-1-yl-phenyl)-3-(5-phenyl-1H-pyrazol-3-yl)-urea], for which the GI50 in assay [1] is 0.1 to 1 µM; in assay [2], 0.1 to 1 µM; with RS4; 11 (FLT3 wild type), more than 1 µM; in assay [3], more than 1 µM; in assay [4], more than 1 µM; with U937 (FLT3 wild-type) it was more than 1 µM. Further, the GI50 (in assay [5]; in [6]; in the assay on HL-60 (FLT3 wild type); in assay [7]) was more than 1 µM throughout.
`Cc1ccnc2c1ncn2-c1ccc(NC(=O)Nc2cc(C(C)(C)C)on2)cc1` [Compound 55, 1-(5-tert-butyl-isoxazol-3-yl)-3-[4-(7-methylimidazo[4,5-b]pyridin-3-yl)-phenyl]-urea]: the GI50 in [1] is 0.01 to 0.1 µM; in assay [2] it was 0.01 to 0.1 µM; in the assay on RS4; 11 (FLT3 wild type) it was more than 1 µM; in [3], more than 1 µM; in [4], more than 1 µM; with U937 (FLT3 wild-type), more than 1 µM. Besides, the GI50 in assay [5] was more than 1 µM; in [6], more than 1 µM; in the assay on HL-60 (FLT3 wild type) it was more than 1 µM; in [7] it was 0.1 to 1 µM.
`CNC(=O)c1cc(Oc2ccc3c(c2)ncn3-c2ccc(NC(=O)Nc3cc(C(C)(C)C)n[nH]3)cc2)ccn1` [Compound 96, 4-(1-{4-[3-(5-tert-butyl-2H-pyrazol-3-yl)-carbamido]-phenyl}-1H-benzimidazol-5-yloxy)-pyridin-2-carboxymethylamine]: the GI50 in [1] is 0.001 to 0.01 µM; in assay [2], 0.001 to 0.01 µM; in the assay with RS4; 11 (FLT3 wild type), more than 1 µM; in assay [3] it was more than 1 µM; in [4], more than 1 µM; in the assay on U937 (FLT3 wild-type), more than 1 µM. The GI50 (in [5]; in assay [6]; with HL-60 (FLT3 wild type); in assay [7]) was more than 1 µM in each case.
For `CC(C)(C)c1cc(NC(=O)Nc2ccc(-n3cnc4cc(OCC5CCCO5)ccc43)cc2)no1` (stereo not shown) [Compound 10, 1-(5-tert-butyl-isoxazol-3-yl)-3-{4-[5-(tetrahydrofuran-2-ylmethoxy)-benzimidazol-1-yl]-phenyl}-urea], the GI50 in [1] is 0.0001 to 0.001 µM; in assay [2] it was 0.0001 to 0.001 µM; in the assay on RS4; 11 (FLT3 wild type), more than 1 µM; in [3], more than 1 µM; in assay [4], more than 1 µM; with U937 (FLT3 wild-type), more than 1 µM. Besides, the GI50 (in assay [5]; in assay [6]; in the assay on HL-60 (FLT3 wild type); in assay [7]) was more than 1 µM throughout.
Turning to `CCOCCOc1ccc2c(c1)ncn2-c1ccc(NC(=O)Nc2cc(C(C)(C)C)on2)cc1` [Compound 13, 1-(5-tert-butyl-isoxazol-3-yl)-3-{4-[5-(2-ethoxyl-ethoxyl)-benzimidazol-1-yl]-phenyl]-urea], the GI50 in assay [1] is 0.0001 to 0.001 µM; in assay [2] it was 0.0001 to 0.001 µM; with RS4; 11 (FLT3 wild type), more than 1 µM; in assay [3], more than 1 µM; in assay [4], more than 1 µM; with U937 (FLT3 wild-type), more than 1 µM. For the same compound, the GI50 (in [5]; in assay [6]; in the assay on HL-60 (FLT3 wild type); in assay [7]) was more than 1 µM in each case.
Regarding `CC(C)(C)c1cc(NC(=O)Nc2ccc(-n3cnc4ccccc43)cc2)on1` [Compound 133, 1-(4-benzimidazol-1-yl-phenyl)-3-(3-tert-butyl-isoxazol-5-yl)-urea], the GI50 in assay [1] was 0.001 to 0.01 µM; in [2], 0.001 to 0.01 µM; in the assay with RS4; 11 (FLT3 wild type) it was more than 1 µM; in [3], more than 1 µM; in [4], more than 1 µM; in the assay on U937 (FLT3 wild-type), more than 1 µM. The GI50 (in [5]; in [6]; with HL-60 (FLT3 wild type); in assay [7]) was more than 1 µM each time.
Turning to `CC(C)(C)c1cc(NC(=O)Nc2ccc(-n3cnc4cc(C(F)(F)F)cnc43)cc2)no1` [Compound 52, 1-(5-tert-butyl-isoxazol-3-yl)-3-[4-(6-trifluoromethyl-imidazo[4,5-b]pyridin-3-yl)-phenyl]-urea], the GI50 is 0.001 to 0.01 µM in assay [1]; 0.001 to 0.01 µM in [2]; more than 1 µM in the assay on RS4; 11 (FLT3 wild type); more than 1 µM in [3]; more than 1 µM in [4]; more than 1 µM in the assay on U937 (FLT3 wild-type). Besides, the GI50 (in assay [5]; in assay [6]; with HL-60 (FLT3 wild type); in assay [7]) was more than 1 µM in each case.
On to `CCOC(=O)COc1ccc2c(c1)ncn2-c1ccc(NC(=O)n2nc(C(C)(C)C)cc2N)cc1` [Compound 124, ethyl (1-{4-[(5-amino-3-tert-butyl-pyrazol-1-carbonyl)-amino]-phenyl}-1H-benzimidazol-5-yloxy)-acetate], for which the GI50 (in [1]; in assay [2]; in the assay with RS4; 11 (FLT3 wild type); in assay [3]; in assay [4]; in the assay on U937 (FLT3 wild-type)) was more than 1 µM in each case. The GI50 in assay [5] is more than 1 µM; in assay [6] it was more than 1 µM; with HL-60 (FLT3 wild type), more than 1 µM; in assay [7], 0.1 to 1 µM.
On to `COCCOc1ccc2c(c1)ncn2-c1ccc(NC(=O)n2nc(C(C)(C)C)cc2N)cc1` [Compound 120, 5-amino-3-tert-butyl-pyrazol-1-carboxylic acid {4-[5-(2-methoxyl-ethoxyl)-benzimidazol-1-yl]-phenyl}-amide], for which the GI50 was 0.001 to 0.01 µM in assay [1]; 0.001 to 0.01 µM in assay [2]; more than 1 µM in the assay on RS4; 11 (FLT3 wild type); more than 1 µM in assay [3]; more than 1 µM in assay [4]; more than 1 µM in the assay with U937 (FLT3 wild-type). Also, the GI50 was more than 1 µM in assay [5], 0.1 to 1 µM in assay [6], more than 1 µM in the assay on HL-60 (FLT3 wild type) and 0.1 to 1 µM in [7].

These data come from patent publication US10647680B2, “Urea compound, preparation method therefor and medical use thereof” (Ancureall Pharmaceutical (Shanghai) Co., Ltd., priority 2016, dated 2020).
